According to patent US11135186B2, “Regulators of the endoplasmic reticulum proteostasis network” (The Scripps Research Institute, priority 2015, dated 2021):

Key:
[1] = test system: XBP1-RLuc reporter (IRE1/XBP1s arm of the UPR); experiment: XBP1-RLuc splicing reporter, 1536-well screen in HEK293T-Rex cells; assay type: cell-based; conditions: % Tg (500 nM) activation, triplicate confirmation screen at 6.8 μM, 18 h
Source text: To evaluate the selectivity of our screening hits for ATF6, we employed an alternative luciferase reporter to measure activation of the IRE1/XBP1s arm of the UPR. This reporter contains Renilla luciferase (RLuc) expressed out of frame downstream of the XBP1 splice site, preventing RLuc translation in the absence of stress (FIG. 2b)^36,37. In response to IRE1 activation, the 26-nt XBP1 intron is removed, producing a frame shift that allows for RLuc translation and activity. Robust dose-dependent activation of the XBP1-RLuc reporter upon addition of the ER stressors Tg and Tm was confirmed in HEK293T-Rex cells stably expressing the XBP1-RLuc reporter, producing a Z′ score of 0.75 for Tg.
HEK293T-Rex cells incorporating either the ERSE-FLuc or XBP1s-RLuc reporters were collected by trypsinization and resuspended at a density of 500,000 cells per mL. The assay was started by dispensing 5 μL of cell suspension into each well of white, solid-bottom 1536-well plates using a flying reagent dispenser (FRD) and placed into an online incubator 3 h. Cells were then treated with 34 nL/well of either test compounds to give final concentrations of 6.8 μM, DMSO (Low control, final concentration 0.68%, 0% activation) or […] of Delta-7 thapsigargin (High control, final concentration 500 nM, 100% activation). Plates were incubated for 18 h at 37° C., removed from the incubator and equilibrated to room temperature for 10 min. Luciferase activity was detected by addition of 5 μL of ONE-Glo reagent (Promega) to each well. After a 10 min incubation time, light emission was measured with the ViewLux reader (PerkinElmer). The percent activation of each test compound was calculated as follows: % Activation=100*(Test Compound−Median Low Control)/(Median High Control ˜Median Low Control).

[2] = test system: BiP expression in HepG2 cells; experiment: BiP qPCR in HepG2 cells; assay type: cell-based
Procedure: (§1) Cells were treated as described at 37° C., washed with Dulbecco's phosphate-buffered saline (Gibco), and then RNA was extracted using the RNeasy Mini Kit (Qiagen). qPCR reactions were performed on cDNA prepared from 500 ng of total cellular RNA using the QuantiTect Reverse Transcription Kit (Qiagen). The FastStart Universal SYBR Green Master Mix (Roche), cDNA, and appropriate human primers^4 or mouse primers (BiP; […] (SEQ ID NO: 5) and […] (SEQ ID NO: 6) purchased from Integrated DNA Technologies were used for amplifications (45 cycles of 1 min at 95° C., 10 s at 95° C., 30 sec at 60° C.) in an ABI 7900HT Fast Real Time PCR machine. Primer integrity was assessed by a thermal melt to confirm homogeneity and the absence of primer dimers. Transcripts were normalized to the housekeeping gene Rplp2 and all measurements were performed in triplicate. Data were analyzed using the RQ Manager and DataAssist 2.0 softwares (ABI).

[3] = test system: endogenous secretory proteome of HepG2^ATF6 cells; experiment: [35S] metabolic labeling, total secreted protein from HepG2^ATF6 cells; assay type: cell-based; conditions: 15 h pretreatment, 10 μM compound or 1 μM Tg, 4 h chase
Procedure: HepG2 cells or HEK293T cells plated on poly-D-lysine coated plates were metabolically labeled in DMEM-Cys/-Met (CellGro) supplemented with glutamine, penicillin/streptomycin, dialyzed fetal bovine serum, and EasyTag EXPRESS^35S Protein Labeling Mix (Perkin Elmer) for 30 min. Cells were washed twice with complete media and incubated in prewarmed DMEM for the indicated times. Media or lysates were harvested at the indicated times. Lysates were prepared in RIPA buffer with fresh protease inhibitor cocktail (Roche). FLAG tagged TTR variants or ALLC were immunopurified using M1 anti-FLAG agarose beads (Sigma-Aldrich) and washed three times with RIPA buffer. The immunoisolates were then eluted by boiling in Laemmli buffer and separated on SDS-PAGE. For total secreted media, 15 uL aliquots from media incubated for 4 hrs on pulsed cells were run on a SDS-PAGE. The gels were then dried, exposed to phosphorimager plates (GE Healthcare), and imaged with a Typhoon imager. Band intensities were quantified by densitometry in ImageQuant. Fraction secreted was calculated using the equation: fraction secreted=[extracellular [^35S]-LC signal at t=t/(extracellular [^35S]-LC signal at t=0+intracellular [^35S]-LC signal at t=0)]. Fraction remaining was calculated using the equation: [(extracellular [^35S]-LC signal at t=t+intracellular [^35S]-LC signal at t=t)/(extracellular [^35S]-LC signal at t=0+ intracellular [^35S]-LC signal at t=0)].

[4] = test system: ALLC interaction with BiP and GRP94; experiment: In situ cross-linking and ALLC co-immunopurification in ALMC-2 cells; assay type: cell-based, human; conditions: 10 μM, 16 h, cross-linking
Procedure: For immunoprecipitations, cells were washed with PBS then cross-linked with 0.5 mM Dithiobis(succinimidyl propionate) (DSP) for 30 min at room temperature. The reaction was quenched by addition of 100 mM Tris pH 7.5, then RIPA buffer was added to the cell pellets for lysis. Lysates were cleared by centrifugation at centrifuged at 10000×g for 15 min. Proteins were immunopurified using sheep polyclonal free λ LC antibody (Bethyl Laboratories A80-127A) that was covalently conjugated to CNBr-activated Sepharose 4B (GE Healthcare). After four washes in RIPA buffer, proteins were eluted by boiling in Laemmli buffer+100 mM DTT and samples were separated by SDS-PAGE and transferred to nitrocellulose membranes. Blots were probed with the following primary antibodies: monoclonal mouse M2 anti-FLAG (1:500, Sigma), polyclonal rabbit anti-TTR (1:1000, Dako), rabbit polyclonal anti-human lambda light chain (1:1000, Bethyl Laboratories A90-112A), mouse monoclonal anti-Grp78 (1:500, Santa Cruz Biotechnology sc-166490), rabbit polyclonal anti-Grp94 (1:1000, GeneTex GTX103203), rabbit polyclonal anti-PDIA4 (1:1000, Protein Tech Group 14712-1-AP), mouse monoclonal anti-ATF6a (1-7) (BioAcademia, 1:1000), rabbit anti-phospho eIF2α (CellSignaling #9721, 1:500), mouse anti-eIF2α (Abcam ab5369, 1:1000) and mouse monoclonal anti β-actin (1:10000, Sigma).

BiP expression = experiment: BiP qPCR 24 h timecourse; assay type: cell-based
Procedure: as §1

Row | Structure (SMILES) | % XBP1-RLuc activation [1] | expression of the ATF6-target gene BiP in HepG2 cells [2] | accumulation of [35S]-labeled protein in media (total secreted proteome) [3] | ALLC interaction with BiP and GRP94 [4] | time of maximal BiP induction (BiP expression)
1 | Cc1ccc(O)c(N/C=C/C(=O)c2ccc(F)cc2)c1 [Compound 132] | 10.3 ± 7.9% | induced | did not influence | increased | 6 h
2 | Cc1ccc(O)c(NC(=O)CCc2ccccc2)c1 [Compound 147] | 17.5 ± 1.9% | induced | did not influence | increased | 6 h
3 | O=[N+]([O-])c1ccc(N/N=C/c2ccccc2O)cc1 [Compound 263] | 2.4 ± 1.0% | induced | did not influence | unchanged | 6 h
